Source: patent US20090111798A1, “5,6-DIHYDRO-1H-PYRIDIN-2-ONE COMPOUNDS” (priority 2006, published 2009)

molecular target: NS5B polymerase (Hepatitis C virus genotype 1b, UniProt P26663); experiment: biochemical; settings: NS5B polymerase inhibition; 20 nM enzyme, 75 min at 28° C.
Protocol: Compounds were tested for HCV polymerase inhibition. Assays were performed in a 96-well streptavidin-coated FlashPlate using 20 nM enzyme, 0.5μ Ci of [α-^33P]GTP, 0.6 μM GTP, and 250 nM 5′biotinylated oligo (rG13)/poly rC in 20 mM Tris-HCl, pH 7.5, 5 mM MgCl2, 5 mM dithiothreitol, 0.1 g/L bovine serum albumin, and 100 U/mL RNAse inhibitor. The reaction was stopped by aspiration after 75 min at 28° C. and the plate was washed several times. After washing and drying the plate, incorporated radioactivity was counted using a Microbeta scintillation counter. IC50 values were calculated relative to the uninhibited control and inhibition data were fitted to a 4-parameter IC50 equation.

NS5B polymerase, sequence (P26663 2420-3010): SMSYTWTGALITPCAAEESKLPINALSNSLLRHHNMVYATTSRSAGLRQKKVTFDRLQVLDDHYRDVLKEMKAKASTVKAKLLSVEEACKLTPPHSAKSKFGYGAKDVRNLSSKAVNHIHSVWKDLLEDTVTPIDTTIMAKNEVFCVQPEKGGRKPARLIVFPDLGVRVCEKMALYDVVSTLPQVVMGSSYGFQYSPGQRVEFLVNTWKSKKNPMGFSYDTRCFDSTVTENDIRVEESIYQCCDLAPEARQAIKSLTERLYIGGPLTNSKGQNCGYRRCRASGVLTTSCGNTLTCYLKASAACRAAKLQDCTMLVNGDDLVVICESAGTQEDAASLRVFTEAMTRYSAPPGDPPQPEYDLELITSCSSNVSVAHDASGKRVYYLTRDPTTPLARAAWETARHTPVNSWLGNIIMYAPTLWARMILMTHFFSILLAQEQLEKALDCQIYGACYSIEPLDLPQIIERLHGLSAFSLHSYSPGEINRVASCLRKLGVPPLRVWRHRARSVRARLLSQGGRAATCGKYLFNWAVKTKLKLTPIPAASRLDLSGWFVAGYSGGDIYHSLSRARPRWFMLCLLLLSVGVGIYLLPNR

Row | IC50 [nM] | Compound
1 | 100 to 1000 | CC(C)N1C(=O)C(C2=NS(=O)(=O)c3cc(NS(C)(=O)=O)ccc3N2)=C(O)[C@@H]2CCC[C@@H]21 (relative stereo) [Example 55, cis-N-[3-(4-Hydroxy-1-isopropyl-2-oxo-2,4a,5,6,7,7a-hexahydro-1H-[1]pyrindin-3-yl)-1,1-dioxo-1,4-dihydro-1λ^6-benzo[1,2,4]thiadiazin-7-yl]-methanesulfonamide]
2 | < 20 | CS(=O)(=O)Nc1ccc2c(c1)S(=O)(=O)N=C(C1=C(O)[C@@H]3CCC[C@@H]3N(Cc3ccc(Cl)cc3)C1=O)N2 (relative stereo) [Example 56, cis-N-{3-[1-(4-Chloro-benzyl)-4-hydroxy-2-oxo-2,4a,5,6,7,7a-hexahydro-1H-[1]pyrindin-3-yl]-1,1-dioxo-1,4-dihydro-1λ^6-benzo[1,2,4]thiadiazin-7-yl}-methanesulfonamide]
3 | < 20 | CS(=O)(=O)Nc1ccc2c(c1)S(=O)(=O)C=C(C1=C(O)[C@@H]3CCCCC[C@@H]3N(Cc3ccc(F)cc3)C1=O)N2 (relative stereo) [Example 57, cis-N-{3-[1-(4-Fluoro-benzyl)-4-hydroxy-2-oxo-2,4a,5,6,7,8,9,9a-octahydro-1H-cyclohepta[b]pyridin-3-yl]-1,1-dioxo-1,4-dihydro-1λ^6-benzo[1,4]thiazin-7-yl}-methanesulfonamide]
4 | 20 to 100 | CS(=O)(=O)Nc1ccc2c(c1)S(=O)(=O)N=C(C1=C(O)C3CCCCCC3N(Cc3ccc(F)cc3)C1=O)N2 (stereo not shown) [Example 2, N-{3-[1-(4-Fluoro-benzyl)-4-hydroxy-2-oxo-2,4-a,5,6,7,8,9,9a-octahydro-1H-cyclohepta[b]pyridin-3-yl]-1,1-dioxo-1,4-dihydro-1λ^6-benzo[1,2,4]thiadiazin-7-yl}-methanesulfonamide]
5 | 100 to 1000 | CS(=O)(=O)Nc1ccc2c(c1)S(=O)(=O)N=C(C1=C(O)C3CCCCCCC3N(Cc3ccc(F)cc3)C1=O)N2 (stereo not shown) [Example 3, N-{3-[1-(4-Fluoro-benzyl)-4-hydroxy-2-oxo-1,2,4a,5,6,7,8,9,10,10a-decahydro-cycloocta[b]pyridin-3-yl]-1,1-dioxo-1,4-dihydro-1λ^6-benzo[1,2,4]thiadiazin-7-yl]-methanesulfonamide]
6 | < 20 | CS(=O)(=O)Nc1ccc2c(c1)S(=O)(=O)N=C(C1=C(O)[C@@H]3CCC[C@@H]3N(Cc3ccc(F)c(Cl)c3)C1=O)N2 [Example 11, (4aR,7aS)—N-{3-[1-(3-Chloro-4-fluoro-benzyl)-4-hydroxy-2-oxo-2,4-a,5,6,7,7a-hexahydro-1H-[1]pyrindin-3-yl]-1,1-dioxo-1,4-dihydro-1λ^6-benzo[1,2,4]thiadiazin-7-yl}-methanesulfonamide]
7 | < 20 | CS(=O)(=O)Nc1ccc2c(c1)S(=O)(=O)N=C(C1=C(O)[C@@H]3CCC[C@@H]3N(Cc3ccc(F)cc3)C1=O)N2 [Example 12, (4aR,7aS)—N-{3-[1-(4-Fluoro-benzyl)-4-hydroxy-2-oxo-2,4-a,5,6,7,7a-hexahydro-1H-[1]pyrindin-3-yl]-1,1-dioxo-1,4-dihydro-1λ^6-benzo[1,2,4]thiadiazin-7-yl}-methanesulfonamide]
8 | 20 to 100 | CS(=O)(=O)Nc1ccc2c(c1)S(=O)(=O)N=C(C1=C(O)[C@@H]3CCCC[C@@H]3N(Cc3ccc(F)cc3)C1=O)N2 [Example 13, (4aR,8aS)—N-{3-[1-(4-Fluoro-benzyl)-4-hydroxy-2-oxo-1,2,4a,5,6,7,8,8a-octahydro-quinolin-3-yl]-1,1-dioxo-1,4-dihydro-1λ^6-benzo[1,2,4]thiadiazin-7-yl}-methanesulfonamide]
9 | 100 to 1000 | CS(=O)(=O)Nc1ccc2c(c1)S(=O)(=O)N=C(C1=C(O)[C@@H]3CCC[C@@H]3N(Cc3ccc(C(F)(F)F)cc3)C1=O)N2 [Example 14, (4aR,7aS)—N-{3-[4-Hydroxy-2-oxo-1-(4-trifluoromethyl-benzyl)-2,4-a,5,6,7,7a-hexahydro-1H-[1]pyrindin-3-yl]-1,1-dioxo-1,4-dihydro-1λ^6 benzo[1,2,4]thiadiazin-7-yl}-methanesulfonamide]
10 | 100 to 1000 | CS(=O)(=O)Nc1ccc2c(c1)S(=O)(=O)N=C(C1=C(O)[C@@H]3CCC[C@@H]3N(Cc3cccc(C(F)(F)F)c3)C1=O)N2 [Example 15, (4aR,7aS)—N-{3-[4-Hydroxy-2-oxo-1-(3-trifluoromethyl-benzyl)-2,4-a,5,6,7,7a-hexahydro-1H-[1]pyrindin-3-yl]-1,1-dioxo-1,4-dihydro-1λ^6-benzo[1,2,4]thiadiazin-7-yl}-methanesulfonamide]
11 | < 20 | CS(=O)(=O)Nc1ccc2c(c1)S(=O)(=O)N=C(C1=C(O)C3CCC=CC3N(Cc3ccc(F)cc3)C1=O)N2 (stereo not shown) [Example 16, N-{3-[1-(4-Fluoro-benzyl)-4-hydroxy-2-oxo-1,2,4a,5,6,8a-hexahydro-quinolin-3-yl]-1,1-dioxo-1,4-dihydro-1λ^6-benzo[1,2,4]thiadiazin-7-yl}-methanesulfonamide]
12 | 20 to 100 | CC(C)CCN1C(=O)C(C2=NS(=O)(=O)c3cc(NS(C)(=O)=O)ccc3N2)=C(O)C2CCCCC21 (stereo not shown) [Example 20, N-{3-[2-(3-Methylbutyl)-5-hydroxy-3-oxo-2-aza-bicyclo[4.4.0]dec-4-en-4-yl]-1,1-dioxo-1,4-dihydro-1λ^6-benzo[1,2,4]thiadiazin-7-yl}-methanesulfonamide]
13 | 20 to 100 | CC(C)(C)CCN1C(=O)C(C2=NS(=O)(=O)c3cc(NS(C)(=O)=O)ccc3N2)=C(O)C2CCCCC21 (stereo not shown) [Example 21, N-{3-[2-(3,3-Dimethylbutyl)-5-hydroxy-3-oxo-2-aza-bicyclo[4.4.0]dec-4-en-4-yl]-1,1-dioxo-1,4-dihydro-1λ^6-benzo[1,2,4]thiadiazin-7-yl}-methanesulfonamide]
14 | < 20 | Cc1cc(CN2C(=O)C(C3=NS(=O)(=O)c4cc(NS(C)(=O)=O)ccc4N3)=C(O)[C@@H]3CCC[C@@H]32)ccc1F [Example 22, (4aR,7aS)—N-{3-[1-(4-fluoro-3-methyl-benzyl)-4-hydroxy-2-oxo-2,4-a,5,6,7,7a-hexahydro-1H-[1]pyrindin-3-yl]-1,1-dioxo-1,4-dihydro-1λ^6-benzo[1,2,4]thiadiazin-7-yl}-methanesulfonamide]
15 | < 20 | Cc1cccc(CN2C(=O)C(C3=NS(=O)(=O)c4cc(NS(C)(=O)=O)ccc4N3)=C(O)[C@@H]3CCC[C@@H]32)c1 [Example 23, (4aR,7aS)—N-{3-[4-Hydroxy-1-(3-methyl-benzyl)-2-oxo-2,4-a,5,6,7,7a-hexahydro-1H-[1]pyrindin-3-yl]-1,1-dioxo-1,4-dihydro-1λ^6-benzo[1,2,4]thiadiazin-7-yl}-methanesulfonamide]
16 | 20 to 100 | CS(=O)(=O)Nc1ccc2c(c1)S(=O)(=O)N=C(C1=C(O)[C@H]3CCC[C@H]3N(Cc3ccc(F)cc3)C1=O)N2 [Example 26, (4aS,7aR)—N-{3-[1-(4-Fluoro-benzyl)-4-hydroxy-2-oxo-2,4-a,5,6,7,7a-hexahydro-1H-[1]pyrindin-3-yl]-1,1-dioxo-1,4-dihydro-1λ^6-benzo[1,2,4]thiadiazin-7-yl}-methanesulfonamide]
17 | < 20 | CS(=O)(=O)Nc1ccc2c(c1)S(=O)(=O)N=C(C1=C(O)[C@@H]3CCC[C@@H]3N(Cc3ccc(F)c(F)c3)C1=O)N2 [Example 27, (4aR,7aS)—N-{3-[1-(3,4-Difluoro-benzyl)-4-hydroxy-2-oxo-2,4-a,5,6,7,7a-hexahydro-1H-[1]pyrindin-3-yl]-1,1-dioxo-1,4-dihydro-1λ^6-benzo[1,2,4]thiadiazin-7-yl]-methanesulfonamide]
18 | < 20 | CC(C)CCN1C(=O)C(C2=NS(=O)(=O)c3cc(NS(C)(=O)=O)ccc3N2)=C(O)[C@@H]2CCC[C@@H]21 [Example 28, (4aR,7aS)—N-{3-[4-Hydroxy-1-(3-methyl-butyl)-2-oxo-2,4-a,5,6,7,7a-hexahydro-1H-[1]pyrindin-3-yl]-1,1-dioxo-1,4-dihydro-1λ^6-benzo[1,2,4]thiadiazin-7-yl]-methanesulfonamide]
19 | < 20 | CC(C)(C)CCN1C(=O)C(C2=NS(=O)(=O)c3cc(NS(C)(=O)=O)ccc3N2)=C(O)[C@@H]2CCC[C@@H]21 [Example 29, (4aR,7aS)—N-{3-[1-(3,3-Dimethyl-butyl)-4-hydroxy-2-oxo-2,4-a,5,6,7,7a-hexahydro-1H-[1]pyrindin-3-yl]-1,1-dioxo-1,4-dihydro-1λ^6-benzo[1,2,4]thiadiazin-7-yl]-methanesulfonamide]
20 | 100 to 1000 | CS(=O)(=O)Nc1ccc2c(c1)S(=O)(=O)N=C(C1=C(O)[C@@H]3CCC[C@@H]3N(CC3CC3)C1=O)N2 [Example 30, (4aR,7aS)—N-[3-(1-Cyclopropylmethyl-4-hydroxy-2-oxo-2,4-a,5,6,7,7a-hexahydro-1H-[1]pyrindin-3-yl)-1,1-dioxo-1,4-dihydro-1λ^6-benzo[1,2,4]thiadiazin-7-yl]-methanesulfonamide]
21 | 20 to 100 | CS(=O)(=O)Nc1ccc2c(c1)S(=O)(=O)N=C(C1=C(O)[C@H]3CCCC[C@H]3N(Cc3ccc(F)cc3)C1=O)N2 [Example 31, (4aS, 8aR)—N-{3-[1-(4-Fluoro-benzyl)-4-hydroxy-2-oxo-1,2,4a,5,6,7,8,8a-octahydro-quinolin-3-yl]-1,1-dioxo-1,4-dihydro-1λ^6 benzo[1,2,4]thiadiazin-7-yl]-methanesulfonamide]
22 | 20 to 100 | CC(C)(C)CCN1C(=O)C(C2=NS(=O)(=O)c3cc(NS(C)(=O)=O)ccc3N2)=C(O)C2CCCCCC21 (stereo not shown) [Example 32, N-{3-[1-(3,3-Dimethyl-butyl)-4-hydroxy-2-oxo-2,4-a,5,6,7,8,9,9a-octahydro-1H-cyclohepta[b]pyridin-3-yl]-1,1-dioxo-1,4-dihydro-1λ^6-benzo[1,2,4]thiadiazin-7-yl]-methanesulfonamide]
